Source: PMC2804074 (Journal of medicinal chemistry, 2010)

What was measured:
[1] = tested on: inteleukine-2 (IL-2) release in Jurkat cells; settings: 10 μM compound; cited from earlier work
[2] = tested on: transient global ischemia; settings: gerbils; i.p. doses ≥ 60 mg/kg; cited from earlier work
p38 [3] = target: T1, p38 (Homo sapiens, UniProt Q16539); assay: biochemical
JNK3 = JNK3 (Homo sapiens, UniProt P53779)
[4] = Microsomal stability, human; type: in vitro ADME; settings: 2 mg/mL human liver microsomes, 1 μM compound
[5] = tested on: c-jun phosphorylation in INS-1 β-pancreatic cells; type: cell-based, rat; settings: for decrease in potency (shift) for c-jun phosphorylation cell-based assay compared to JNK1 biochemical IC50: cell-based versus JNK1 biochemical
[6] = Microsomal stability, mouse; type: in vitro ADME; settings: 2 mg/mL mouse liver microsomes, 1 μM compound
[7] = Microsomal stability, rat; type: in vitro ADME; settings: 2 mg/mL rat liver microsomes, 1 μM compound
CYP3A4 = CYP3A4 (Homo sapiens, UniProt P08684); assay: P450 inhibition, midazolam hydroxylation; type: in vitro ADME; settings: probe midazolam
Chain of CYP3A4 (P08684 whole entry): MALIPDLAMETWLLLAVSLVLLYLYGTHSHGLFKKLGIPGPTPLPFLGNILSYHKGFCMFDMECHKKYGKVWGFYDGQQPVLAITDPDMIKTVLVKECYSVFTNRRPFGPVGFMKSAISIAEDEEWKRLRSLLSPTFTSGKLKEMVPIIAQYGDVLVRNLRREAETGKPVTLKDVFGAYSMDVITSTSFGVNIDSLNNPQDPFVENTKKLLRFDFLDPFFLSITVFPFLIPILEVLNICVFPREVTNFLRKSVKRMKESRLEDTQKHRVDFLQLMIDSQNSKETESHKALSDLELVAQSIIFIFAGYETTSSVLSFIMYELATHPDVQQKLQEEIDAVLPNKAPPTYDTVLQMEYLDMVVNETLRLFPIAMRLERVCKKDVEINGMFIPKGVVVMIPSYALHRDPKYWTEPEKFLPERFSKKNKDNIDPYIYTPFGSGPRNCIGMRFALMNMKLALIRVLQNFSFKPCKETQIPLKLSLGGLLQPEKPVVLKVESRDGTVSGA

CYP2C9 = CYP2C9 (Homo sapiens, UniProt P11712); assay: P450 inhibition, tolbutamide hydroxylation; type: in vitro ADME; settings: probe tolbutamide
Chain of CYP2C9 (P11712 whole entry): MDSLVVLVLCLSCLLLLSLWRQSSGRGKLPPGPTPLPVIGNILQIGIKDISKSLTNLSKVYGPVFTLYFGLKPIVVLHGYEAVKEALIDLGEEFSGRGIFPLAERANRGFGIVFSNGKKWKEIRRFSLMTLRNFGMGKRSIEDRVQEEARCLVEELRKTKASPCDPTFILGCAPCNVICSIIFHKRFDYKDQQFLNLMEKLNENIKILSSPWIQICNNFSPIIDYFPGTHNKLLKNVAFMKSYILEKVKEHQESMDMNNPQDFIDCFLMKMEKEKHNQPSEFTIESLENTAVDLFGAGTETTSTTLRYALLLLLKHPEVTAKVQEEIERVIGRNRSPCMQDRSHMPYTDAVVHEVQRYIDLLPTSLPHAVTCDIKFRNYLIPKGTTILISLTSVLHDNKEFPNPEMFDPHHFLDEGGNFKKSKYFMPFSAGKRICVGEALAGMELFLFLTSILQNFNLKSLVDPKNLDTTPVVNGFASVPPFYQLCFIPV

CYP2D6 = CYP2D6 (Homo sapiens, UniProt P10635); assay: P450 inhibition, bufuralol hydroxylation; type: in vitro ADME; settings: probe bufuralol
Chain of CYP2D6 (P10635 whole entry): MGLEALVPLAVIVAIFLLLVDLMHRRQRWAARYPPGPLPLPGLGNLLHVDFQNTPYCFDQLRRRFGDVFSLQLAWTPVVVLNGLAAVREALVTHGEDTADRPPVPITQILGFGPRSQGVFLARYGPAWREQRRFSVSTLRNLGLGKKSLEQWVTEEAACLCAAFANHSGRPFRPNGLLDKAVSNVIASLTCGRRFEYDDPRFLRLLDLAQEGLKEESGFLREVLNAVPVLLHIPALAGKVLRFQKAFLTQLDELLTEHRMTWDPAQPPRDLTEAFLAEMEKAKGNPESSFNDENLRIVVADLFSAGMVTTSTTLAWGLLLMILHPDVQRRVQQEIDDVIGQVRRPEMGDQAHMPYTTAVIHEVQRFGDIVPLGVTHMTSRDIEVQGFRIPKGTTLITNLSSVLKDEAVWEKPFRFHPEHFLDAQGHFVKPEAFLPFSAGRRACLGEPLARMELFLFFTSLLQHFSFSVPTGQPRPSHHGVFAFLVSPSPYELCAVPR

CYP1A2 = target: T2, CYP1A2 (Homo sapiens, UniProt P05177); assay: P450 inhibition, phenaceten demethylation; type: in vitro ADME; settings: probe phenaceten
T2 sequence (P05177 1-516): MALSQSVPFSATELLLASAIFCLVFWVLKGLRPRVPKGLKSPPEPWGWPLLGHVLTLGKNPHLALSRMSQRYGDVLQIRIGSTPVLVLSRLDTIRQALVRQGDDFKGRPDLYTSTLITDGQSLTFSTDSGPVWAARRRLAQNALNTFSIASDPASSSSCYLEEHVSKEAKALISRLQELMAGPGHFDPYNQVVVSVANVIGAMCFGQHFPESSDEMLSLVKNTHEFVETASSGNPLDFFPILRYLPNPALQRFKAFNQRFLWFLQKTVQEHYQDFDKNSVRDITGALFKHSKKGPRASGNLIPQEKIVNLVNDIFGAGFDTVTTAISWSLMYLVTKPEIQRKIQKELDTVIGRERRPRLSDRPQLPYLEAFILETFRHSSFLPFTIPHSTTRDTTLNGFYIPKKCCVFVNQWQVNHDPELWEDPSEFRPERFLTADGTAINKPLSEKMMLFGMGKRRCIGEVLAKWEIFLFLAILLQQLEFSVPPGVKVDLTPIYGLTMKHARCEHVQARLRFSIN

JNK1 = JNK1 (Homo sapiens, UniProt P45983); assay: Homogeneous time resolved fluorescence biochemical assay, JNK1
Chain of JNK1 (P45983 whole entry): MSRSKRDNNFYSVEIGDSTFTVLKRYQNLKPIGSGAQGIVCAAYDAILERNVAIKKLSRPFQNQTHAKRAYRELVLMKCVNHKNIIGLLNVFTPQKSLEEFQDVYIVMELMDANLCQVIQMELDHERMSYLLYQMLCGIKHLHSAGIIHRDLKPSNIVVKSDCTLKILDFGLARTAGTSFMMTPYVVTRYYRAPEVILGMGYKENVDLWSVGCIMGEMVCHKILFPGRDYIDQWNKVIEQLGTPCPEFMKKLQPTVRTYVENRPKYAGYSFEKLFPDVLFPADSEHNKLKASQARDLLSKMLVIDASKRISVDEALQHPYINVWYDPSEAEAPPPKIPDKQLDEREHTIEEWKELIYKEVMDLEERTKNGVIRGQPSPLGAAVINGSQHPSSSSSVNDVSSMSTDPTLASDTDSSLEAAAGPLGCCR

p38 [8] = target: T1, p38; settings: JNK versus p38
MAPK3K1-4 = assay: Kinase counterscreen, MAPK3K1-4; type: biochemical; settings: 3 μM
panel of 400 kinases = assay: Broad counterscreening against a panel of 400 kinases; type: biochemical; settings: 3 μM; out of 400 kinases
ASK-1 = target: T3, ASK-1 (Homo sapiens, UniProt Q99683); assay: Kinase counterscreen, ASK-1; type: biochemical; settings: 3 μM
T3 sequence (Q99683 1-1374): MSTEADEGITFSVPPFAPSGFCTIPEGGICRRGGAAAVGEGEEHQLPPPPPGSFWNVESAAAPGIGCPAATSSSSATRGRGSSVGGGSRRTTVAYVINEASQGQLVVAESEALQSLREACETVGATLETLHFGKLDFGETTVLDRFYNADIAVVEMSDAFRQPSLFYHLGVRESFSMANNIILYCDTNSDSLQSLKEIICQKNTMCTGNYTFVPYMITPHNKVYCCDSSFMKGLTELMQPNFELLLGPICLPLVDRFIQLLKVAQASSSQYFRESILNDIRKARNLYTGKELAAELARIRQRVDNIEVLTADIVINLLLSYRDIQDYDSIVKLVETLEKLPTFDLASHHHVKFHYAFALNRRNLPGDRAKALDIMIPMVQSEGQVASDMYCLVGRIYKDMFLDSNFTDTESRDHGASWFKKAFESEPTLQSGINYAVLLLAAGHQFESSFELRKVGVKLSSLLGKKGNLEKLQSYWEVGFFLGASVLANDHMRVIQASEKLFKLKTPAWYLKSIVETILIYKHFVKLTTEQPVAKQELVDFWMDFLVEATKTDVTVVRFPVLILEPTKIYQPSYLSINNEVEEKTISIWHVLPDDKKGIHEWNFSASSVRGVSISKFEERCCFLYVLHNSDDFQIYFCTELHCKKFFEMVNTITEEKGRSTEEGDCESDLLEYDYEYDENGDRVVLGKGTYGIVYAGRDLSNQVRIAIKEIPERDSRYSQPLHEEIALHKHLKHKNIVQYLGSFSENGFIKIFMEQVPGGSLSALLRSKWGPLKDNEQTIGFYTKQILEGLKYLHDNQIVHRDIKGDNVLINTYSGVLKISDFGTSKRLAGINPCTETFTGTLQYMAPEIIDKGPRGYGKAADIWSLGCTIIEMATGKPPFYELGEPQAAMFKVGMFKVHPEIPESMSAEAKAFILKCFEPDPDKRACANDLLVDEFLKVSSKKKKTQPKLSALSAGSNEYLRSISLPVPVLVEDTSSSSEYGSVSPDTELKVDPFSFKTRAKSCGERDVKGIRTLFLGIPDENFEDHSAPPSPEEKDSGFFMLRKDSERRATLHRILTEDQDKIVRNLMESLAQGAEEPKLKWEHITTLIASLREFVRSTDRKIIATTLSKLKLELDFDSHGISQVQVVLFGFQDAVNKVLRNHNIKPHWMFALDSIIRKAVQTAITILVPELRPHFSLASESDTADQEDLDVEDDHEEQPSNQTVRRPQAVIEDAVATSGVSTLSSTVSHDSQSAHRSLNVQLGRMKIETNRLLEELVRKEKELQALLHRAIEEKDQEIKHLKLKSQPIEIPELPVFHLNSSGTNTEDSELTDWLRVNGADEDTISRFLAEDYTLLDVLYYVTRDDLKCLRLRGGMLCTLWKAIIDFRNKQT

MKK4 = target: T4, MKK4 (Homo sapiens, UniProt P45985); assay: Kinase counterscreen, MKK4; type: biochemical; settings: 3 μM
T4 sequence (P45985 1-399): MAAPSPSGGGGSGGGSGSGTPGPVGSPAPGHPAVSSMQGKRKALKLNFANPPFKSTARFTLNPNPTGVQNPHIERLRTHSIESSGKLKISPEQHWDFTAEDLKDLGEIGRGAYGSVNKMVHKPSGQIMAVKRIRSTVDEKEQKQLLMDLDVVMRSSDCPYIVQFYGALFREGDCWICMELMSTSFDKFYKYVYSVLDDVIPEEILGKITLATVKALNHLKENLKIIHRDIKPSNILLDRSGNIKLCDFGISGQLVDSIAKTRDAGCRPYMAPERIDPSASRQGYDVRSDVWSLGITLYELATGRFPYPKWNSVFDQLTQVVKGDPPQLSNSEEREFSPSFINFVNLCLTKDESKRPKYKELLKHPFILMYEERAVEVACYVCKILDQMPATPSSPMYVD

MLK1-3 = assay: Kinase counterscreen, MLK1-3; type: biochemical; settings: 3 μM
MKK7 = target: T5, MKK7 (Homo sapiens, UniProt O14733); assay: Kinase counterscreen, MKK7; type: biochemical; settings: 3 μM
T5 sequence (O14733 1-419): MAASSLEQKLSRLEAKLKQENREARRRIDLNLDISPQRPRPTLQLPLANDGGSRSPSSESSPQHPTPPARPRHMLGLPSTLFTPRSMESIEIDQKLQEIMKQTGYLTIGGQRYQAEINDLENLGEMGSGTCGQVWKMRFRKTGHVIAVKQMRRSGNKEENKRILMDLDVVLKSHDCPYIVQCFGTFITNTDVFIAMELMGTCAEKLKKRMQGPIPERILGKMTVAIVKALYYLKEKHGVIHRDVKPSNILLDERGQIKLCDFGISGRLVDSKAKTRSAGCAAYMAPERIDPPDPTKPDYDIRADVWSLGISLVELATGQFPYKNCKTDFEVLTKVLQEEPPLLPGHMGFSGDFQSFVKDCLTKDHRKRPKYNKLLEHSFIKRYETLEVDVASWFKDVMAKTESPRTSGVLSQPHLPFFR

T1 sequence (Q16539 whole entry): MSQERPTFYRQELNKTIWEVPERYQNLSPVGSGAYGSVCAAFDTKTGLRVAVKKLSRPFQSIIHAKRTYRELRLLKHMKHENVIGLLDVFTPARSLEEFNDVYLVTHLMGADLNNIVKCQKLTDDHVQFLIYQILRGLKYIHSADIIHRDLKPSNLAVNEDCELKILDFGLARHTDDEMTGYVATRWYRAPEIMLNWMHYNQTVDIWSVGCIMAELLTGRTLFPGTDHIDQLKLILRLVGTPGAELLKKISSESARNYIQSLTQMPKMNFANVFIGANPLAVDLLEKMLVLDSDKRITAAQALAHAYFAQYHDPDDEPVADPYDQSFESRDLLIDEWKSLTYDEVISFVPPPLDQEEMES
Chain of JNK3 (P53779 1-422 isoform P53779-2): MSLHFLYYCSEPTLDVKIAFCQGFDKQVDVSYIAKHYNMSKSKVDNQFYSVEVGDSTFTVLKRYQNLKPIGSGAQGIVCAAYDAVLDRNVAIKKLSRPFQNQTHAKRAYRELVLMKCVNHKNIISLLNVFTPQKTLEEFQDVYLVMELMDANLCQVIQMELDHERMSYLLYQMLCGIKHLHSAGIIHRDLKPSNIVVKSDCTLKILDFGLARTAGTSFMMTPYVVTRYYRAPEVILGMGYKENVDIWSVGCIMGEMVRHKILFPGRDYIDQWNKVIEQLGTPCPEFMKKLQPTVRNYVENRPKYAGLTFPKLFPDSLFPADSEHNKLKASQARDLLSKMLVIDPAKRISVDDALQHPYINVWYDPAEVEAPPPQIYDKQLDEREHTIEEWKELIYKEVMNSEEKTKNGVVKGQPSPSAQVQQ

1,3-benzothiazol-2-yl (2-[[2-(3-pyridinyl) ethyl] amino]-4 pyrimidinyl) acetonitrile [AS601245]
inhibition of IL-2 release in Jurkat cells [1]: 90% | efficacy in transient global ischemia models [2]: efficacious

NC(=O)c1ccc(Nc2nccc(-c3ccccc3)n2)cc1 [Compound 9a]
IC50 (p38 [3]): > 20 µM

c1cc(-c2ccnc(Nc3ccc(-n4ccnn4)cc3)n2)cc(N2CCOCC2)c1 [Compound 9c]
IC50 (p38 [3]): > 20 µM

CS(=O)(=O)Nc1ccc(-c2ccnc(Nc3ccc(S(N)(=O)=O)cc3)n2)cc1 [Compound 9d]
IC50 (p38 [3]): > 20 µM

CS(=O)(=O)Nc1ccc(-c2ccnc(Nc3ccc(-n4ccnn4)cc3)n2)cc1 [Compound 9e]
fold more potent versus JNK3 than compound 9c (JNK3; compared to 9c): 91 fold | Microsomal Stability (half life), human [4]: poor microsomal stability | decrease in potency (shift) for c-jun phosphorylation cell-based assay compared to JNK1 biochemical IC50 [5]: 13 fold | Microsomal Stability (half life), mouse [6]: poor microsomal stability | IC50 (p38 [3]): > 20 µM | Microsomal Stability (half life), rat [7]: poor microsomal stability

Cc1ncn(-c2ccc(Nc3nccc(-c4cccc(N5CCOCC5)c4)n3)cc2)n1 [Compound 9f]
inhibition at 15 min, 10 µM (CYP3A4): < 50% | inhibition at 15 min, 10 µM (CYP2C9): < 50% | inhibition at 15 min, 10 µM (CYP2D6): < 50% | IC50 (p38 [3]): > 20 µM | inhibition at 15 min, 10 µM (CYP1A2): < 50%

Cc1ncn(-c2ccc(Nc3nccc(-c4cc(C#N)cc(N5CCOCC5)c4)n3)cc2)n1 [Compound 9g]
increase in potency for JNK3 inhibition compared to 9f (JNK3; compared to 9f): approximately 5 fold | decrease in potency (shift) for c-jun phosphorylation cell-based assay compared to JNK1 biochemical IC50 [5]: essentially equipotent | increase in potency for JNK1 inhibition compared to 9f (JNK1; compared to 9f): approximately 5 fold | selectivity over p38 (p38 [8]): greater than 135 fold | IC50 (p38 [3]): > 20 µM

Cn1nnc(-c2ccc(Nc3nccc(-c4cc(C#N)cc(N5CCOCC5)c4)n3)cc2)n1 [Compound 9h, 3-(2-(4-(2-methyl-2H-tetrazol-5-yl)phenylamino)pyrimidin-4-yl)-5-morpholinobenzonitrile]
inhibition at 15 min, 10 µM (CYP3A4): ≤ 15% | difference in IC50 for c-jun phosphorylation compared to 9g ([5]; compared to 9g): less than 2 fold | difference in IC50 for JNK1 compared to 9g (JNK1; compared to 9g): less than 2 fold | inhibition at 15 min, 10 µM (CYP2C9): ≤ 15% | inhibition at 15 min, 10 µM (CYP2D6): ≤ 15% | IC50 (p38 [3]): > 20 µM | inhibition at 15 min, 10 µM (CYP1A2): ≤ 15%

c1cncc(-c2ncn(-c3ccc(Nc4nccc(-c5cccc(N6CCOCC6)c5)n4)cc3)n2)c1 [Compound 9i, 4-(3-Morpholinophenyl)-N-(4-(3-(pyridin-3-yl)-1H-1,2,4-triazol-1-yl)phenyl)pyrimidin-2-amine]
IC50 (p38 [3]): > 20 µM

N#Cc1cc(-c2ccnc(Nc3ccc(-n4cnc(-c5ccccn5)n4)cc3)n2)cc(N2CCOCC2)c1 [Compound 9j, 3-Morpholino-5-(2-(4-(3-(pyridin-2-yl)-1H-1,2,4-triazol-1-yl)phenylamino)pyrimidin-4-yl)benzonitrile]
inhibition at 15 min, 10 µM (CYP3A4): ≤ 33% | inhibition at 15 min, 10 µM (CYP2C9): ≤ 33% | inhibition at 15 min, 10 µM (CYP2D6): ≤ 33% | IC50 (p38 [3]): > 20 µM | inhibition at 15 min, 10 µM (CYP1A2): ≤ 33%

CN1CCN(c2ncn(-c3ccc(Nc4nccc(-c5cc(F)cc(N6CCOCC6)c5)n4)cc3)n2)CC1 [Compound 9k]
decrease in potency (shift) for c-jun phosphorylation cell-based assay compared to JNK1 biochemical IC50 [5]: essentially equipotent | IC50 (p38 [3]): > 20 µM

Fc1cc(-c2cc[nH]/c(=N/c3ccc(-n4cnc(N5CCOCC5)n4)cc3)n2)cc(N2CCOCC2)c1 [Compound 9l]
inhibition at 15 min, 10 µM (CYP3A4): 70 to 90% | inhibition of MAPK3K1-4 (MAPK3K1-4): no inhibition | number of kinases showing > 25% inhibition (panel of 400 kinases): 28 | number of kinases showing greater than 70% biochemical inhibition (panel of 400 kinases): eleven | IC50 ([5]; read-out: cell-based IC50, inhibition of c-jun phosphorylation): ~50 nM | inhibition of ASK-1 (ASK-1): no inhibition | inhibition of MKK4 (MKK4): no inhibition | inhibition at 15 min, 10 µM (CYP2C9): 70 to 90% | inhibition of MLK1-3 (MLK1-3): no inhibition | IC50 (p38 [3]): > 20 µM | inhibition at 15 min, 10 µM (CYP1A2): 70 to 90% | inhibition of MKK7 (MKK7): no inhibition
